How the values were obtained:
[1] = target: T1, Neuropeptide Y receptor type 5 (Homo sapiens, UniProt Q15761); assay: Inhibition of binding of radioligand [125I]PYY to the human Neuropeptide Y receptor type 5, using a stably transfected HEK293 cell line; assay type: cell-based
T1 sequence (Q15761 whole entry): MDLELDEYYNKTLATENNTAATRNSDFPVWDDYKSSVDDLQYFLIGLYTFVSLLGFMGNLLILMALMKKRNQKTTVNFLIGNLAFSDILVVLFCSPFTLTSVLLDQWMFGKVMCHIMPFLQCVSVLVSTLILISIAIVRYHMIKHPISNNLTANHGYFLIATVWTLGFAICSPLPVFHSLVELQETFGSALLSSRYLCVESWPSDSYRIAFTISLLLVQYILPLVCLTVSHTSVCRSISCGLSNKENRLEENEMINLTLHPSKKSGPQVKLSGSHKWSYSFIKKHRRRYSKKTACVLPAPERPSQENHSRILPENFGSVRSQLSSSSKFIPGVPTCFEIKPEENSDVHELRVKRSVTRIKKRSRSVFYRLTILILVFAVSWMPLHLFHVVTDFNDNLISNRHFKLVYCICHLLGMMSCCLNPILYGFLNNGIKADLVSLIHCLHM

[2] = target: T2, Neuropeptide Y receptor type 5 (Homo sapiens) (UniProt Q15761); assay: Antagonist potency by inhibition of peptide YY (PYY)-induced incorporation of [35S]GTP-gamma-S into membranes prepared from NPY5 receptor expressing cells, in the presence of 300 nM PYY; assay type: functional
T2 sequence (whole entry): T1 sequence (Q15761 whole entry)

| SMILES | IC50 [1] [nM] | Kb [2] [nM] |
| --- | --- | --- |
| CC(C)(C)NC(=O)NC1CCN(CC(=O)NC2CCc3cc(F)ccc3C2Cc2cccnc2)CC1 (stereo unspecified) | 140 |  |
| O=C(CN1CCC(NC(=O)c2ccccc2)CC1)NC1CCc2cc(F)ccc2C1Cc1cccnc1 (stereo unspecified) | 28 |  |
| O=C(Cc1ccccc1)NC[C@H]1CC[C@H](C(=O)NC2CCc3cc(F)ccc3C2Cc2cccnc2)CC1 (stereo partly specified) | 114 |  |
| O=C(CN1CCC(n2c(=O)[nH]c3ccccc32)CC1)NC1CCc2ccccc2C1Cc1cccnc1 (stereo unspecified) | 22 |  |
| CC(C)(C)OC(=O)NC1CCN(CC(=O)NC2CCc3cc(F)ccc3C2Cc2cccnc2)CC1 (stereo unspecified) | 37 |  |
| O=C(CN1CCC(NC(=O)Oc2ccccc2)CC1)NC1CCc2cc(F)ccc2C1Cc1cccnc1 (stereo unspecified) | 52 |  |
| CC(C)(C)OC(=O)NC[C@H]1CC[C@H](C(=O)NC2CCc3cc(F)ccc3C2Cc2cccnc2)CC1 (stereo partly specified) | 16 |  |
| O=C(NC[C@H]1CC[C@H](C(=O)NC2CCc3cc(F)ccc3C2Cc2cccnc2)CC1)c1ccccc1 (stereo partly specified) | 39 |  |
| CC(C)(C)OC(=O)N[C@@H]1CCN(CC(=O)NC2CCc3cc(F)ccc3C2Cc2cccnc2)C1 (stereo partly specified) | 30 |  |
| O=C(CN1CC[C@H](NC(=O)c2ccccc2)C1)NC1CCc2cc(F)ccc2C1Cc1cccnc1 (stereo partly specified) | 26 |  |
| CC(C)(C)OC(=O)N[C@H]1CCN(CC(=O)NC2CCc3cc(F)ccc3C2Cc2cccnc2)C1 (stereo partly specified) | 17 |  |
| COc1ccc2c(c1)CCC(NC(=O)CN1CCC(n3c(=O)[nH]c4ccccc43)CC1)C2Cc1cccnc1 (stereo unspecified) | 75 |  |
| CC(C)(C)OC(=O)NC1CCN(CC(=O)NC2CCc3cc(F)ccc3C2Cc2cccnc2)C1 (stereo unspecified) | 45 |  |
| O=C(CN1CCC(n2c(O)nc3ccccc32)CC1)NC1CCc2cc(O)ccc2C1Cc1cccnc1 (stereo unspecified) | 6 | 21 |
| O=C(CN1CCC(n2c(O)nc3ccccc32)CC1)NC1CCc2cc(F)ccc2C1Cc1cccnc1 (stereo unspecified) | 25 | 21 |
| O=C(Cc1ccccc1)NC1CCN(CC(=O)NC2CCc3cc(F)ccc3C2Cc2cccnc2)CC1 (stereo unspecified) | 36 |  |
| O=C(NC[C@H]1CC[C@H](C(=O)NC2CCc3cc(F)ccc3C2Cc2cccnc2)CC1)Nc1ccccc1 (stereo partly specified) | 170 |  |
| O=C(NC[C@H]1CC[C@H](C(=O)NC2CCc3cc(F)ccc3C2Cc2cccnc2)CC1)Oc1ccccc1 (stereo partly specified) | 31 |  |
| O=C(CN1CCC(NC(=O)Nc2ccccc2)CC1)NC1CCc2cc(F)ccc2C1Cc1cccnc1 (stereo unspecified) | 236 |  |
